Holding throughout (assay type): cell-based
Assay [1] has as its target T1, N96T TAS2R16 (Homo sapiens, UniProt Q9NYV7, N96T).
T1 construct: FLAG (N); expressed in transfected cells; host or cells: HEK-293T
The experiment in a line: Ca2+ flux assay, N96T TAS2R16 variant. The conditions noted are these: Fig. 7 dose-response. How it is done: (§1) The TAS2R16 mutation library was tested for function using a Ca^2+ flux assay as described previously. Later screens of individual TAS2R16 mutant clones used 4-nitrophenyl-β-D-glucopyranoside. Briefly, HEK-293T cells, in poly-lysine coated, black 384-well plates with clear bottoms (Costar), were transfected with the TAS2R16 mutation library, and a plasmid expressing a Gα16 chimera containing the last 44 amino acids of rat gustducin (Gα16gust44). Cells were incubated for 22 hours at 37 °C then washed twice with a calcium indicator dye in HBSS containing 20 mM HEPES (Calcium 4 Assay kit, Molecular Devices), incubated with HBSS for 1.5 hr, then moved to a Flexstation II-384 (Molecular Devices) set at 32 °C. […] Concentrations for mutation library screening were chosen to be approximately 2 to 3 times higher than the EC50 values for the ligands to maximize the sensitivity of detecting decreases in signaling due to the mutation in each clone.
(§2) For Ca^2+ flux assays, the value of fluorescence at 30 seconds after ligand addition (the time of peak signal for wild-type TAS2R16) was used as the maximum value. […] Data sets were analyzed and represented as percentage over baseline signal. Mean and standard deviation values were calculated for each clone from replicate assay data.
(§3) Ligand dose-response data was analyzed with Graphpad Prism 5 software. […]

Assay [2] concerns the target T2, N96A TAS2R16 (Homo sapiens, UniProt Q9NYV7, N96A).
T2 construct: FLAG (N); expressed in transfected cells; host or cells: HEK-293T
Briefly: Ca2+ flux assay, N96A TAS2R16 variant. The conditions noted are these: Fig. 7 dose-response. How it is done:
as §1, §2, §3

The target of assay [3] is T3, D46A TAS2R16 (Homo sapiens, UniProt Q9NYV7, D46A).
T3 construct: FLAG (N); expressed in transfected cells; host or cells: HEK-293T
T3 sequence (Q9NYV7 whole entry D46A): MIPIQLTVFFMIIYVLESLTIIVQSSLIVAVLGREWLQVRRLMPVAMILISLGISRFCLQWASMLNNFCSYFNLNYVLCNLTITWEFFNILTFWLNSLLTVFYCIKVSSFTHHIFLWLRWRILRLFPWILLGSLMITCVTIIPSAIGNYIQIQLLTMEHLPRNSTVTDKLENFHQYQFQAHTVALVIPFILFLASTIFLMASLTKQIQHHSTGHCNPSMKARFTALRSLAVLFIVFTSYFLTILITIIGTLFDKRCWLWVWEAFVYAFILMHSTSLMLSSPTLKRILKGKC
Briefly: Ca2+ flux assay, mutation library clone D46A. As to conditions: 3 mM salicin, mean (range, max-min), n=3. Here is the method:
as §1, §2
Background: Calcium flux is commonly read through the fluorescence of an indicator in the cells.

Assay [4] concerns the target T4, R56P TAS2R16 (Homo sapiens, UniProt Q9NYV7, R56P).
T4 construct: FLAG (N); expressed in transfected cells; host or cells: HEK-293T
Briefly: Ca2+ flux assay, mutation library clone R56P. As to conditions: 3 mM salicin, mean (range, max-min), n=3. How it is done:
as §1, §2

Assay [5] addresses T5, M64R TAS2R16 (Homo sapiens, UniProt Q9NYV7, M64R).
T5 construct: Each construct in the mutation library was tested for full-length TAS2R16 translation; V5; expressed in transfected cells; host or cells: HEK-293T
The experiment in a line: Ca2+ flux assay, mutation library clone M64R. As to conditions: 3 mM salicin, mean (range, max-min), n=3. How it is done:
as §1, §2

The target of assay [6] is T6, S97R TAS2R16 (Homo sapiens, UniProt Q9NYV7, S97R).
T6 construct: Each construct in the mutation library was tested for full-length TAS2R16 translation; V5; expressed in transfected cells; host or cells: HEK-293T
T6 sequence (Q9NYV7 whole entry S97R): as the sequence (Q9NYV7 whole entry D46A) above, with A46D, S97R counted along it
The experiment in a line: Ca2+ flux assay, mutation library clone S97R. As to conditions: 3 mM salicin, mean (range, max-min), n=3. How it is done: as §1, §2

For assay [7], the target named is T7, C104R TAS2R16 (Homo sapiens, UniProt Q9NYV7, C104R).
T7 construct: Each construct in the mutation library was tested for full-length TAS2R16 translation; V5; expressed in transfected cells; host or cells: HEK-293T
T7 sequence (Q9NYV7 whole entry C104R): as the sequence (Q9NYV7 whole entry D46A) above, with A46D, C104R counted along it
Briefly: Ca2+ flux assay, mutation library clone C104R. As to conditions: 3 mM salicin, mean (range, max-min), n=3. Here is the method: as §1, §2

For assay [8], the target named is T8, L134R TAS2R16 (Homo sapiens, UniProt Q9NYV7, L134R).
T8 construct: Each construct in the mutation library was tested for full-length TAS2R16 translation; V5; expressed in transfected cells; host or cells: HEK-293T
T8 sequence (Q9NYV7 whole entry L134R): as the sequence (Q9NYV7 whole entry D46A) above, with A46D, L134R counted along it
The experiment in a line: Ca2+ flux assay, mutation library clone L134R. The conditions noted are these: 3 mM salicin, mean (range, max-min), n=3. Here is the method:
as §1, §2

In assay [9] the target is T9, L191R TAS2R16 (Homo sapiens, UniProt Q9NYV7, L191R).
T9 construct: Each construct in the mutation library was tested for full-length TAS2R16 translation; V5; expressed in transfected cells; host or cells: HEK-293T
T9 sequence (Q9NYV7 whole entry L191R): as the sequence (Q9NYV7 whole entry D46A) above, with A46D, L191R counted along it
Briefly: Ca2+ flux assay, mutation library clone L191R. The conditions noted are these: 3 mM salicin, mean (range, max-min), n=3. How it is done: as §1, §2

Assay [10] concerns the target T10, M271R TAS2R16 (Homo sapiens, UniProt Q9NYV7, M271R).
T10 construct: Each construct in the mutation library was tested for full-length TAS2R16 translation; V5; expressed in transfected cells; host or cells: HEK-293T
The experiment in a line: Ca2+ flux assay, mutation library clone M271R. As to conditions: 3 mM salicin, mean (range, max-min), n=3. How it is done:
as §1, §2

T10 sequence (Q9NYV7 whole entry M271R): as the sequence (Q9NYV7 whole entry D46A) above, with A46D, M271R counted along it
T2 sequence (Q9NYV7 whole entry N96A): as the sequence (Q9NYV7 whole entry D46A) above, with A46D, N96A counted along it
T4 sequence (Q9NYV7 whole entry R56P): as the sequence (Q9NYV7 whole entry D46A) above, with A46D, R56P counted along it
T1 sequence (Q9NYV7 whole entry N96T): as the sequence (Q9NYV7 whole entry D46A) above, with A46D, N96T counted along it
T5 sequence (Q9NYV7 whole entry M64R): as the sequence (Q9NYV7 whole entry D46A) above, with A46D, M64R counted along it

Take `OCc1ccccc1O[C@@H]1O[C@H](CO)[C@@H](O)[C@H](O)[C@H]1O` [salicin]: the EC50 (in general, the concentration that produces a half-maximal response) in assay [1] is 0.8 mM; in assay [2], 6.5 mM. For the same compound, the “Ca2+ flux in response to salicin” value in assay [3] is reported as 8 (9) % of wild-type; in assay [4] it was 2 (1) % of wild-type; in assay [5], 14 (1) % of wild-type; in assay [6] it was 0 (5) % of wild-type; in assay [7] it was 9 (1) % of wild-type; in assay [8] it was 1 (8) % of wild-type. For the same compound, the “Ca2+ flux in response to salicin” value in assay [9] is given as 1 (3) % of wild-type; in assay [10] it was 7 (6) % of wild-type.

These data come from PMC5552880, “The Bitter Taste Receptor TAS2R16 Achieves High Specificity and Accommodates Diverse Glycoside Ligands by using a Two-faced Binding Pocket” (Scientific Reports, 2017).
